Measured values: paper PMC11062922 (Nature Chemical Biology, 2023)

Legend:
ACAD11 = biological target: T1, ACAD11 (Homo sapiens, UniProt Q709F0); assay: Kinobeads two-dose competition binding: ACAD11; details: sheet CATDS matrix 2; Gene Name ACAD11
T1 construct: endogenous in cells
T1 sequence (Q709F0 1-780): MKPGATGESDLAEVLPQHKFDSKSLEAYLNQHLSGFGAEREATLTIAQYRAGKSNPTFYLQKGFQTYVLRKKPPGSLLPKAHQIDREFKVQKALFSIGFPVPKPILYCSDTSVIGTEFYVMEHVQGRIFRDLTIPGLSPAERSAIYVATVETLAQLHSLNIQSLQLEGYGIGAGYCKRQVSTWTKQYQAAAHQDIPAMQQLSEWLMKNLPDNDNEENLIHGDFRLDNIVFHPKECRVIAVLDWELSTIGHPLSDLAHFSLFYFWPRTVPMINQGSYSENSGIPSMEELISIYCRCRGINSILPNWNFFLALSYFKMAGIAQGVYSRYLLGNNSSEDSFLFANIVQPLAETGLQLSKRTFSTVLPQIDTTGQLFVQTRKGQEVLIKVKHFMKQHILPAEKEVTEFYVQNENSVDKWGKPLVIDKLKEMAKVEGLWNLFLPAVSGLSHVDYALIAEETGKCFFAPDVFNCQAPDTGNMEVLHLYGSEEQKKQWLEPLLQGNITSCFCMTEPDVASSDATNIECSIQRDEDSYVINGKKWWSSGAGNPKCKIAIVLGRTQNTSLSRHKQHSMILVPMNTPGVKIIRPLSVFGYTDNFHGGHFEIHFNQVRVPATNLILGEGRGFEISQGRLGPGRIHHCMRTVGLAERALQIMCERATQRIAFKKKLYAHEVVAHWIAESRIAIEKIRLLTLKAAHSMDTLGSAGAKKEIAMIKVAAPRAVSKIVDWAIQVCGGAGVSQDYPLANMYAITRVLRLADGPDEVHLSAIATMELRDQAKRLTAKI

ABL2 = biological target: T2, ABL2 (Homo sapiens, UniProt P42684); assay: Kinobeads two-dose competition binding: ABL2; details: sheet CATDS matrix 2; Gene Name ABL2
T2 construct: endogenous in cells
T2 sequence (P42684 whole entry): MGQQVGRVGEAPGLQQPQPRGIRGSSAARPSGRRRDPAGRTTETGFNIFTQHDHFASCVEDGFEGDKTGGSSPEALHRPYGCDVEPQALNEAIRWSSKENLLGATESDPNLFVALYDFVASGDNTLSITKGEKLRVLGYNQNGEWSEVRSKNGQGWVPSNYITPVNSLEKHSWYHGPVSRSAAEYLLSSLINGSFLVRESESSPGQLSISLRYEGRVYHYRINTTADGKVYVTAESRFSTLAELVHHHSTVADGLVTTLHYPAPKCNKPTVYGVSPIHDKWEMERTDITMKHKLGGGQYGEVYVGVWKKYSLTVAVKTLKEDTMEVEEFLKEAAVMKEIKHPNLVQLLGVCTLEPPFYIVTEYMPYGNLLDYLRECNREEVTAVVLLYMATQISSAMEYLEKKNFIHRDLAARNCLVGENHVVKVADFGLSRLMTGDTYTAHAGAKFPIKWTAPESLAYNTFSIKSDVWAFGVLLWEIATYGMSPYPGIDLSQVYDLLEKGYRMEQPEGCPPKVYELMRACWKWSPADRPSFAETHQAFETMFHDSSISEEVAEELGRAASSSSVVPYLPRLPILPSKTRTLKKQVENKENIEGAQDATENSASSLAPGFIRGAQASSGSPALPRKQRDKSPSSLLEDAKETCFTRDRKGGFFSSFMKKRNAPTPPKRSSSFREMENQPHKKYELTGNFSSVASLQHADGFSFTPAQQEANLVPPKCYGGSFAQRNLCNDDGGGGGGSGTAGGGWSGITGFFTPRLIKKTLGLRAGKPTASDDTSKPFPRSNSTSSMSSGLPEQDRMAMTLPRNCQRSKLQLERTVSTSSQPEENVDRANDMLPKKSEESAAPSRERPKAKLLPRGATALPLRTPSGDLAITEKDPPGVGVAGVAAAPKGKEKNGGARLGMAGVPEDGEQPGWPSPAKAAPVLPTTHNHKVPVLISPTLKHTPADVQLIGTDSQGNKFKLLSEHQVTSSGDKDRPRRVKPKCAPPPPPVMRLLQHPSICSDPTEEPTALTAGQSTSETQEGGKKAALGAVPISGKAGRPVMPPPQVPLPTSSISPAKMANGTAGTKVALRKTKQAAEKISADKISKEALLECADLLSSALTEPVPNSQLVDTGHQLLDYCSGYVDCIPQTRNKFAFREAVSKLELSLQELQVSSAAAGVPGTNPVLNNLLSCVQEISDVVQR

ABL1 = ABL1 (Homo sapiens, UniProt P00519); assay: Kinobeads two-dose competition binding: ABL1; details: sheet CATDS matrix 2; Gene Name ABL1
Sequence of ABL1 (P00519 28-1130 limits assumed): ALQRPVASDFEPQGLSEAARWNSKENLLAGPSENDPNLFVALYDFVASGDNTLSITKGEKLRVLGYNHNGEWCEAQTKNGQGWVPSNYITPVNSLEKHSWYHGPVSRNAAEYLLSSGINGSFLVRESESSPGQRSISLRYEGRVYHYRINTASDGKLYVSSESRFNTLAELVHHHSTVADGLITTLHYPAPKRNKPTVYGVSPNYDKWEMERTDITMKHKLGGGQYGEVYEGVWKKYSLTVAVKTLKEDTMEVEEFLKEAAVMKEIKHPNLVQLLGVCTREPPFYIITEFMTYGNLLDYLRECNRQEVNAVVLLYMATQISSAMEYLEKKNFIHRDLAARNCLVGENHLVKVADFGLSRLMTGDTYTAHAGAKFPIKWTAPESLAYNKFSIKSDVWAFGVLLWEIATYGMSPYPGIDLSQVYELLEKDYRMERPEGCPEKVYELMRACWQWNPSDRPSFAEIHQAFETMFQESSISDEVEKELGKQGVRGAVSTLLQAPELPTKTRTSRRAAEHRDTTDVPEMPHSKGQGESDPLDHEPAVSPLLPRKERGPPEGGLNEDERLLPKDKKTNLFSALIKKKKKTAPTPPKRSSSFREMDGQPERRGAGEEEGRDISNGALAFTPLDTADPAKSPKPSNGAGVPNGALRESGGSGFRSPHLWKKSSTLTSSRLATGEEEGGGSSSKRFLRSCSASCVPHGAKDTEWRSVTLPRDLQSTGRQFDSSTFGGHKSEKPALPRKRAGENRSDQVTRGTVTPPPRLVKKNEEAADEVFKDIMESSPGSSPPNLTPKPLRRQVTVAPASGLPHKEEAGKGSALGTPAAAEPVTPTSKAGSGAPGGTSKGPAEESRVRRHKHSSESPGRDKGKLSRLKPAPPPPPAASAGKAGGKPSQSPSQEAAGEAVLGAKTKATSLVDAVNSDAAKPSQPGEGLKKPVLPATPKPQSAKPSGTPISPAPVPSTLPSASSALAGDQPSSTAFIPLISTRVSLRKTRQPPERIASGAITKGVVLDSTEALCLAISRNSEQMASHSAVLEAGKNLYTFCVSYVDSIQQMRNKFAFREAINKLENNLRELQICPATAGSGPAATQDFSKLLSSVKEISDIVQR

AAK1 = biological target: T3, AAK1 (Homo sapiens, UniProt Q2M2I8); assay: Kinobeads two-dose competition binding: AAK1; details: sheet CATDS matrix 2; Gene Name AAK1;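 also: kinobeads competition pulldown from cell lysate, compound preincubated 45 min at 4 °C, bead-bound protein measured by label-free mass spectrometry against DMSO vehicle control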
T3 construct: to maximize the representation of endogenous proteins; endogenous in cells
T3 sequence (Q2M2I8 whole entry): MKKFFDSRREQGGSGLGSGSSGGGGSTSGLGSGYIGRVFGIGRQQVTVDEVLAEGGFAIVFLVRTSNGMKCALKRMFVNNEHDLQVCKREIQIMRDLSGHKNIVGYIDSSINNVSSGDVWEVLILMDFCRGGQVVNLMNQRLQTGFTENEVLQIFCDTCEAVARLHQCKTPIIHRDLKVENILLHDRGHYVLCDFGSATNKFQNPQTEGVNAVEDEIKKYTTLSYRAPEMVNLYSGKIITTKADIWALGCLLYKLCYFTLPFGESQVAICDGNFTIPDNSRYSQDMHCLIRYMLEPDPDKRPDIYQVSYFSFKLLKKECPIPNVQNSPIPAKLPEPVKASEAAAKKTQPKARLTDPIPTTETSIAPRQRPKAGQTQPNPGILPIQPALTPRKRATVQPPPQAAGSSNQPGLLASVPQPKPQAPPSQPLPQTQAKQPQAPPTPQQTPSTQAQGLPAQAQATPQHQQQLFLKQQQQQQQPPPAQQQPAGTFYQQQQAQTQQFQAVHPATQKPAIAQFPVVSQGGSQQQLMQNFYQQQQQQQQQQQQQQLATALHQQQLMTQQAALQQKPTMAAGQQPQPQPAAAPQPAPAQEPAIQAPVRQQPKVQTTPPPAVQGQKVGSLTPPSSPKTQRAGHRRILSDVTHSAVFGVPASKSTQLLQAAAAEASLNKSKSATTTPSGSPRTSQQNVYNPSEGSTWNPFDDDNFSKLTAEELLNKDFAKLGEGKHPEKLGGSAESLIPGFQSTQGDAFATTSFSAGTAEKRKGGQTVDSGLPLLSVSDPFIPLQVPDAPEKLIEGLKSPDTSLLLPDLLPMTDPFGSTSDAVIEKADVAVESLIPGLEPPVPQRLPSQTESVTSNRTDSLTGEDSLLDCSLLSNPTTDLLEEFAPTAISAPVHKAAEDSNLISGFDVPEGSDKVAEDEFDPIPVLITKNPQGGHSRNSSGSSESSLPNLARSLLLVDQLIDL

ACOX1 = biological target: T4, ACOX1 (Homo sapiens, UniProt Q15067); assay: Kinobeads two-dose competition binding: ACOX1; details: sheet CATDS matrix 2; Gene Name ACOX1;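 also: competition of compounds with immobilized broad-spectrum kinase inhibitor beads in cell lysate at 100 and 1,000 nM, 45 min at 4 °C, bead-bound protein quantified by label-free MS versus DMSO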
T4 construct: endogenous in cells
T4 sequence (Q15067 1-660): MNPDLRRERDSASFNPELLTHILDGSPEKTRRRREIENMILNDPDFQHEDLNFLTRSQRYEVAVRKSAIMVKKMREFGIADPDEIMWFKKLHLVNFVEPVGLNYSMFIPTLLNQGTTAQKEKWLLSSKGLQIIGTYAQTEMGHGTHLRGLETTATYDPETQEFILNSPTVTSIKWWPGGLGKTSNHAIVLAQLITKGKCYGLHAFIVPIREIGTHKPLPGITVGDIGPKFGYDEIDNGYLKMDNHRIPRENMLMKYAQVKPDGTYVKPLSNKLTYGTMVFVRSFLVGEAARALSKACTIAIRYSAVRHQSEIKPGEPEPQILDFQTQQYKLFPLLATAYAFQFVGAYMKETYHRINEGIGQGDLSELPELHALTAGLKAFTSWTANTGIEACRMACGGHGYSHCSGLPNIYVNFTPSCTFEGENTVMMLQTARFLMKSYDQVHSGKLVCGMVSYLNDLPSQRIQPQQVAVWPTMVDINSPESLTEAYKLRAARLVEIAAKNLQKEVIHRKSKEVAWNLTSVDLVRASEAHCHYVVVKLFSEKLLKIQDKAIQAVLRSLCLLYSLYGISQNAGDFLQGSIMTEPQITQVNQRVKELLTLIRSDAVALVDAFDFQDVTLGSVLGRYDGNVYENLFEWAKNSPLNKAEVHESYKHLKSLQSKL

| SMILES | CATDS (ACAD11) | CATDS (ABL2) | CATDS (ABL1) | CATDS (AAK1) | CATDS (ACOX1) |
| --- | --- | --- | --- | --- | --- |
| CC(C)c1cc(-c2ccc3c(N)n[nH]c3c2)nc(N)n1 [GSK2250882A] | 0 | 0 | 0 | 0.3935 | 0 |
| C[C@@H]1CCCCN1c1cc(-c2ccc3c(N)n[nH]c3c2)nc(N)n1 [GSK2258759A] | 0 | 0 | 0 | 0 | 0 |
| CC(C)N1CCN(Cc2cnc(-c3cc(-c4cccc5[nH]ccc45)cc4[nH]ncc34)o2)CC1 [GSK2269557] | 0 | 0 | 0 | 0 | 0 |
| Cc1ccccc1Cn1ccn2c(=O)cc(N3CCOCC3)nc12 [GSK2269905A] | 0 | 0 | 0 | 0 | 0 |
| O=c1[nH]cc(-c2ccc(N3CCOCC3)cc2)c2sc(-c3cn[nH]c3)cc12 [GSK2276055A] | 0 | 0 | 0 | 0 | 0 |
| C[C@H]1CC[C@@H](C(=O)Nc2ccccc2)CN1c1cc(-c2ccc3c(N)n[nH]c3c2)nc(N)n1 [GSK2283293_KCGS] | 0 | 0 | 0 | 0 | 0 |
| CC(C)(C)OC(=O)NC1CCCN(c2cc(-c3ccc4c(N)n[nH]c4c3)nc(N)n2)C1 (centres unmarked) [GSK2286096A] | 0 | 0 | 0 | 0 | 0 |
| O=c1cc(N2CCOCC2)nc2n(Cc3cccc(Cl)c3Cl)ccn12 [GSK2286295A] | 0 | 0 | 0 | 0 | 0 |
| Nc1nc(-c2ccc3c(N)n[nH]c3c2)cc(N2CCCC(NC(=O)c3ccccc3)C2)n1 (centres unmarked) [GSK2286775B] | 0 | 0 | 0 | 0.05355 | 0 |
| Cc1c(Cn2ccn3c(=O)cc(N4CCOCC4)nc23)cccc1C(F)(F)F [GSK2289044B] | 0 | 0 | 0 | 0 | 0 |
| COc1ncc(-c2cc(-c3ncc(CN4C[C@@H](C)O[C@@H](C)C4)o3)c3cn[nH]c3c2)cc1NS(C)(=O)=O [GSK2292767] | 0 | 0 | 0 | 0 | 0 |
| O=c1cc(N2CCOCC2)nc2n(Cc3cccc(Cl)c3)ccn12 [GSK2296823A] | 0 | 0 | 0 | 0 | 0 |
| O=c1cc(N2CCOCC2)nc2n(Cc3ccc(F)c(Cl)c3)ccn12 [GSK2297099A] | 0 | 0 | 0 | 0 | 0 |
| O=c1cc(N2CCOCC2)nc2n(Cc3ccccc3F)ccn12 [GSK2297428A] | 0 | 0 | 0 | 0 | 0 |
| O=c1cc(N2CCOCC2)nc2n(Cc3cccc(F)c3)ccn12 [GSK2297430A] | 0 | 0 | 0 | 0 | 0 |
| Cc1cccc(Cn2ccn3c(=O)cc(N4CCOCC4)nc23)c1 [GSK2297542A] | 0 | 0 | 0 | 0 | 0 |
